Results as given in patent publication EP4772186A1, “USE AND COMPOSITION OF POSTBIOTIC OF LACTOBACILLUS PARACASEI ET-22” (Inner Mongolia Yili Industrial Group Co., Ltd., priority 2023, dated 2025).

System: indole, hexanoic acid, and propanoic acid
Experiment: SPME-GC-MS of characteristic flavor compounds
Format: cell-based, halitosis subjects (saliva)
Experimental: Fresh saliva was collected from 10 halitosis subjects (Halimeter index >120). Subjects were required not to consume any food or drink for 2 hours before donating saliva. Saliva was directly spat into a saliva collection tube, 5 ml per person, and mixed. The mixture was centrifuged at 4500 rpm for 10 minutes, and the supernatant was collected, aliquoted, and stored at -80°C for subsequent experimental studies.
(§1) Lysate group: In a headspace vial, 100 µl of saliva was added first, followed by separate addition of ET-22 viable bacteria (1.0×10^9 CFU/ml), ET-22 heat-inactivated bacterial cells (obtained by inactivating viable bacteria at 1.0×10^9 CFU/ml), and lysate (obtained by inactivating and then filtering viable bacteria at 1.0×10^9 CFU/ml), each at 100µl. Then, 800 µl of SHI medium was added. After filling with nitrogen, anaerobic cultivation was performed for 10 hours for loading on machine, and then SPME-GC-MS was used to test the change in content of volatile organic compound.
as §1, with “NAD group:” for “Lysate group:”, “by the” for “by”, “by heat-inactivating” for “by inactivating”, “and NAD (100 µg/ml),” for “and lysate (obtained by inactivating and then filtering viable bacteria at 1.0×10^9 CFU/ml),”, “machine,” for “machine, and”, “the changes” for “the change”
as §1, with “2-hydroxy-3-phenylpropionic acid group:” for “Lysate group:”, “by the” for “by”, “by heat-inactivating” for “by inactivating”, “and 2-hydroxy-3-phenylpropionic acid (100 µg/ml),” for “and lysate (obtained by inactivating and then filtering viable bacteria at 1.0×10^9 CFU/ml),”, “the changes” for “the change”
as §1, with “GP(HYP)GAG group:” for “Lysate group:”, “by the” for “by”, “by heat-inactivating” for “by inactivating”, “and GP(HYP)GAG (100 µg/ml),” for “and lysate (obtained by inactivating and then filtering viable bacteria at 1.0×10^9 CFU/ml),”, “the changes” for “the change”
Peptidoglycan group: In a headspace vial, 100 µl of saliva was added first, followed by separate addition of ET-22 viable bacteria (1.0×10^9 CFU/ml), ET-22 heat-inactivated bacterial cells (same as Example 1), and peptidoglycan (same as Example 1), each at 100µl. Then, 800 µl of SHI medium was added. After filling with nitrogen, anaerobic cultivation was performed for 10 hours for loading on machine, and then SPME-GC-MS was used to test the changes in content of volatile organic compound.
Helium was used as a carrier gas, with a rate remaining at 1.1 mL min-1. The injector temperature was set at 250°C. Oven temperature program was as follows: holding at 40°C for 1 min, then ramping to 120°C at a rate of 8°C/min, followed by increasing to 230°C at a rate of 5°C/min and holding for 10 minutes. The mass spectrometer was operated in electron ionization (EI) mode, with ion source temperature of 230°C, interface temperature of 200°C, and M/Z scan range of 30-400. To identify specific compounds, their mass spectra were compared with those of true compounds given in the NIST 17 database (V.05). The minimum matching quality for forward and reverse matches was 75/100. The flavor characteristic of each compound was determined based on data from the Good Scents Company Information System (http://www.thegoodscentscompany.com). […]

[1] = pure components 100 µg/ml, others from 1.0×10^9 CFU/ml, 10 hours
[2] = relative to ET-22 viable bacteria and heat-inactivated bacteria

O=C(O)C(O)Cc1ccccc1 (stereo not drawn) [2-hydroxy-3-phenylpropionic acid]
significantly decrease: hexanoic acid concentration [1] | indole concentration [1] | propanoic acid concentration [1]
better: intervention effect on hexanoic acid [2] | intervention effect on indole [2] | intervention effect on propanoic acid [2]
